# Data: patent US20130231305A1, “Method of Modulating Protein 14-3-3 Functionality By Facilitating or Inhibiting Phosphorylation” (Medvet Science Pty. Ltd., priority 2010, published 2013)
# Test system: Jurkat cells
# Assay: Jurkat cell apoptosis (TMRE staining, NucView caspase activity)
# Assay type: cell-based
# Details: TMAs, 16 hours incubation
# Text: (A) Immunoblotting of lysates from either parental Jurkat cells (Jurkat) or cells transduced with lentivirus encoding either wild type (Wt) or S58A 14-3-3ζ-Myc with either an anti-14-3-3ζ specific antibody (upper panel) or an anti-pan 14-3-3 antibody (middle panel) to compare the expression level of transduced protein. Myc immunoprecipitates were also immunoblotted with an anti-phospho 14-3-3 binding site antibody (lower panel) to detect proteins associated with 14-3-3ζ-Myc. Endogenous 14-3-3 is indicated by an open arrow and exogenous 14-3-3ζ-Myc with a closed arrow. (B) Lysates from either wild type (Wt) or S58A 14-3-3ζ-Myc expressing Jutkat cells were subjected to in vitro PKA phosphorylation in the presence (+) or absence (−) of […] and the samples immunoblotted after SDS-PAGE separation With either anti-Myc antibody (upper panel), anti-14-3-3ζ antibody (middle panel) or anti-phospho Ser58 14-3-3ζ antibody (lower panel). (C) Serum-starved Jurkat cells were treated with 2 μM FTY720 for 4 h prior to staining with TMRE and NucView™. Forward- versus side-scatter plots (FS versus SS) show the viable cell populations for FTY720 and EtOH (vehicle) treated cells which are analysed in the lower histograms for caspase activity (NucView™) versus ΔΨM (TMRE). (D and E) Jurkat cell lines expressing either wild type or S58A 14-3-3ζ-Myc by lentiviral transduction were serum-starved for 2 h and treated with either 0.1% ethanol vehicle alone (EtOH), 2 μM dimethyl-sphingosine (DMS), or 2 μM FTY720. Cells were analysed by TMRE staining at 4 h (D) or at the time points indicated (E). (D) Representative analyses of TMRE staining with forward- versus side-scatter plots inset to show the similarity in cell populations. (E) Graphical representation of TMRE analysis over time with open symbols representing vehicle (0.1% EtOH) treated cells and closed symbols representing FTY720 treated cells. […]
# FIG. 11. […] Effect of TMAs on Jurkat cells after 16 hours incubation assessed by ΔΨM (TMRE) and caspase 3 activity (NucView™) analysis. […] Forward-side-scatter histograms showing cell viability are inset and caspase 3 activity as assessed by NucView™ analysis of viable cells shown. E. Examples of TMA-derivatives of FTY720 that will be analysed for effects on 14-3-3 dimer stability and apoptosis.
# Having confirmed appropriate expression and behaviour of Myc-tagged wild type and S58A 14-3-3ζ in the Jurkat lines, these cells were utilised in functional studies to determine the effect of S58A 14-3-3ζ expression on cell survival in response to sphingosine analogues. […] Intriguingly, Jurkat cells expressing S58A 14-3-3ζ-Myc consistently underwent commitment to apoptosis (as detected by the loss of TMRE staining) more slowly than those expressing wild type 14-3-3ζ-Myc (FIG. 8D).
row,SMILES,"apoptosis of Jurkat cells (ΔΨM by TMRE, caspase 3 by NucView)"
1,CCCCCCCCCCCCCCCC[N+](C)(C)C.[Br-] [CTAB],apoptosis induced by CTAB

# Target: T1, PKCδCat-HA (Homo sapiens, UniProt Q05655)
# T1 construct: recreated exactly the N-terminus of the caspase-3 cleaved protein; additional initiator methionine (N); expressed in transfected cells; host or cells: COS cells, anti-HA immunoprecipitate
# Assay: PKC kinase activity assay with Ser25 peptide substrate
# Assay type: biochemical
# Details: 10 μM GF109203X
# Experimental: FIG. 5 is an image depicting that DMS is required for phosphorylation of 14-3-3ζ by PKCδCat but not for activation of the kinase. COS cells were transfected with either an empty expression construct (Mock) or one encoding a HA-tagged truncated form of PKCδ corresponding to the caspase-3 cleaved protein (PKCδCat-HA). 20 hours after transfection the cells were lysed and PKCδCat-HA was immunoprecipitated using an anti-HA antibody. (A) PKC assays were carried out on the immunoprecipitates from mock (open bars) and PKCδCat-HA (shaded bars) expressing cells using Ser25 peptide as substrate with [^32P]γ-ATP in the presence or absence of 100 μM DMS (delivered in 0.1% ethanol) or 10 μM of GF109203X (GFX), the PKC inhibitor. The values represent means±S.E. of triplicate determinations. (B) PKCδCat-HA immunoprecipitates were incubated with recombinant 14-3-3ζ and [^32P]γ-ATP in the presence or absence of DMS or GF109203X (GFX). Phosphorylated 14-3-3 was detected by autoradiography after separation of SDS-PAGE (upper panel). The gel was also coomassie stained to show equal loading of 14-3-3 protein (lower panel). […]
# Equal amounts of PKCδCat-HA immunoprecipitate were used to assay for PKC kinase activity, or to phosphorylate recombinant 14-3-3. […] Following incubation, reactions were separated on 12.5% SDS-PAGE, coomassie stained and 14-3-3 phosphorylation analysed by autoradiography.
# T1 sequence (Q05655 330-676 limits assumed): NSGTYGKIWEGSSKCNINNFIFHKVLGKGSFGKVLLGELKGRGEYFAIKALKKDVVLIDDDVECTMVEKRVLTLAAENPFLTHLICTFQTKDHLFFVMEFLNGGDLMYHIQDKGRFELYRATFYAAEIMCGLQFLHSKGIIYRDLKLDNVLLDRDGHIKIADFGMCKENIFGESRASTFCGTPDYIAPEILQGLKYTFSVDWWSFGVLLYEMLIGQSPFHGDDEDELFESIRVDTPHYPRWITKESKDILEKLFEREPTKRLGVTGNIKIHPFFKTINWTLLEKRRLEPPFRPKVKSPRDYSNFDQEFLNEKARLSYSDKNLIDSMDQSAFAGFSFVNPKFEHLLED
row,SMILES,effect on PKCδCat kinase activity
1,CN(C)CCCn1cc(C2=C(c3c[nH]c4ccccc34)C(=O)NC2=O)c2ccccc21 [GF109203X],completely inhibited

# Target: T2, 14-3-3ζ (Homo sapiens, UniProt P63104)
# T2 construct: made in house
# T2 sequence (P63104 1-245): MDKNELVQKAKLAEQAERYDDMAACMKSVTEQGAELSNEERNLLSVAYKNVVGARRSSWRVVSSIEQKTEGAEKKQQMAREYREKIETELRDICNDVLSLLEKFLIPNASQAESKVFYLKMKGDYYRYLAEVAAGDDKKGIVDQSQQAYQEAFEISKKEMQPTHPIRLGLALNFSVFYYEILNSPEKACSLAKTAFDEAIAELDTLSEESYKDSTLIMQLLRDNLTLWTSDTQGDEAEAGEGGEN
# Assay: 14-3-3 phosphorylation by PKA catalytic subunit (autoradiography)
# Assay type: biochemical
# Details: TMA compounds at 125 μM or 62.5 μM in 0.1% ethanol; P81 scintillation counting or autoradiography
row,SMILES,14-3-3 phosphorylation by PKA catalytic subunit
1,"CCCCCCCCCCCCCCCC[N+](C)(C)C.[Br-] [C16, hexadecyl-trimethyl ammonium]",capable of facilitating 14-3-3 phosphorylation
2,CCCCCCCCCCCCCC[N+](C)(C)C [C14],capable of facilitating 14-3-3 phosphorylation

# Target: T2, 14-3-3ζ
# Assay: as above
# Assay type: biochemical
# Details: 50 μM lipid delivered in 0.1% ethanol
# Experimental: 14-3-3ζ (wild-type or S58A mutant) was incubated with the catalytic subunit of PKA in the presence (+) or absence (−) of 50 μM sphingosine (A) or DMS (B) delivered in 0.1% ethanol. Phosphorylated 14-3-3ζ was detected by autoradiography.
# The assay was carried out by incubating 14-3-g (0.5 μg) with catalytic subunit of PKA (0.2 Units) with the indicated concentration of DMS delivered in 0.1% ethanol. Reactions were separated on SDS-PAGE and phosphorylated protein detected by autoradiography. […] (B) 14-3-3ζ was incubated with the catalytic subunit of PKA and 50 μM D-erythro-sphingosine (Sph), D-erythro-trimethyl-sphingosine (TMS), D-erythro-dihydro-sphingosine (DHS), phyto-sphingosine (PSph), D-erythro-sphingosine-1-phosphate (SIP), C2-ceramide (C2-Cer), sphingomyelin (SM), spermine (Sper) or linoleic acid (LA), all delivered in 0.1% ethanol. Phosphorylated 14-3-3ζ was detected by autoradiography.
# Substrate 14-3-3 (either 0.5 μg of purified recombinant 14-3-3, a […] of fractions from gel filtration or immunoprecipitates from 14-3-3ζ-Myc transfected COS cells) were added to reaction mixture comprising 0.2 Units of the PKA catalytic subunit, in the presences or absence of sphingolipid (delivered in 0.1% v/v ethanol) in PICA reaction buffer (20 mM MOPS, pH 7.4, 20 mM β-glycerol phosphate, 4 mM EGTA, 1 mM Na3VO4, 60 mM MgCl2, 1 mM DTT, 500 μM ATP, 2.4 μCi [^32P]γ-ATP). Reactions were incubated at 37° C. for 15 minutes. After incubation, reactions were separated on 12.5% SDS-PAGE, coomassie stained and 14-3-3 phosphorylation analysed by autoradiography.
row,phosphorylation of 14-3-3ζ on Ser58 by PKA catalytic subunit,SMILES
1,did not support the phosphorylation,CCCCC/C=C\C/C=C\CCCCCCCC(=O)O [linoleic acid]
2,did not support the phosphorylation,CCCCCCCCCCCCC/C=C/[C@@H](O)[C@H](COP(=O)([O-])OCC[N+](C)(C)C)NC(=O)CCCCCCCCCCCCCCCCC [sphingomyelin]
3,allowed phosphorylation,"CCCCCCCCCCCCC/C=C/[C@@H](O)[C@H](CO)[N+](C)(C)C [trimethyl-sphingosine, D-erythro-trimethyl-sphingosine]"
4,allowed phosphorylation,"CCCCCCCCCCCCCCC[C@@H](O)[C@@H](N)CO [dihydro-sphingosine, D-erythro-dihydro-sphingosine]"
5,did not support the phosphorylation,"CCCCCCCCCCCCC/C=C/[C@@H](O)[C@H](CO)NC(C)=O [ceramide, C2-ceramide]"
6,did not support the phosphorylation,"NCCCNCCCCNCCCN [spermide, spermine]"
7,did not support the phosphorylation,"CCCCCCCCCCCCC/C=C/[C@@H](O)[C@@H](N)COP(=O)(O)O [sphingosine-1-phosphate, D-erythro-sphingosine-1-phosphate]"
8,allowed phosphorylation,CCCCCCCCCCCCCC[C@@H](O)[C@@H](O)[C@@H](N)CO [phyto-sphingosine]
